Experimental data published in US9458463B2, “Method for treatment of diabetes by a small molecule inhibitor for GRK5” (MAX-PLANCK-GESELLSCHAFT ZUR FÖRDERUNG DER WISSENSCHAFTEN …, priority 2010, dated 2016).

What was measured:
GRK5 = target: T1, GRK5 (Homo sapiens, UniProt P34947); experiment: Millipore KinaseProfiler radiometric filtration binding assay; format: biochemical; details: group II; Millipore KinaseProfiler (Table 10)
T1 construct: purchased Millipore (KinaseProfiler service)
Protocol: (§1) As alternative, IC50 values are determined by a radiometric based filtration binding assay, namely Millipore KinaseProfiler™. GRK5 is incubated with 8 mM MOPS pH7.0, 0.2 mM EDTA, 2 mg/mL casein, 10 mM MgAcetate and […] (specific activity approx. 500 cpm/pmol, concentration as required). The reaction is initiated by the addition of the MgATP mix. After incubation for 40 minutes at room temperature, the reaction is stopped by the addition of 3% phosphoric acid solution. 10 μL of the reaction is then spotted onto a P30 filtermat and washed three times for 5 minutes in 75 mM phosphoric acid and once in methanol prior to drying and scintillation counting.
as §1, with “IC50” for “As alternative, IC50”, “pH 7.0,” for “pH7.0,”

full length GRK5 = target: T2, full length GRK5 (Homo sapiens, UniProt P34947); experiment: GRK5 kinase activity assay, ADP Glo Kinase Assay technology (Promega); format: biochemical; details: group II; ADP Glo Kinase Assay (Table 9-B)
T2 construct: 6/2 fold concentrated full length GRK5 (Millipore, #14-714) in reaction buffer; purchased Millipore 14-714
Procedure, shortened: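 Casein (10 μM) phosphorylation with 100 μM ATP in 20 mM MES pH 6.0, 1 mM DTT, 10 mM MgCl2, 0.01% Tween20, 120 min at room temperature; ADP quantified by ADP-Glo luminescence.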

[1] = tested on: beta-TC6 insulinoma cells; experiment: Insulin release by beta-TC6 cells, rat/mouse insulin ELISA, high glucose; format: cell-based; details: Mus musculus, Beta-TC6, 2 h, group II; 5 μM, 2 h, high glucose (4.5 g/L); % increase in regard to DMSO control (set at 0%)
Protocol: (§2) Release of insulin was detected using a rat/mouse insulin ELISA.
After incubation, the supernatant of the beta-TC6 insulinoma cells was diluted 1:20. The insulin release was measured with rat/mouse insulin ELISA (Merck Millipore Darmstadt, Cat. # EZRMI-13K) by following the manufacture protocol. The enzyme activity of the horseradish peroxidase of the immobilized biotinylated antibodies was monitored spectrophotometrically by the increased absorbency at 490 nm, and corrected by the absorbency at 610 nm.
as §2
The effect on the insulin release of each kinase depletion was monitored by using a rat/mouse insulin ELISA.
For the validation of the negative modulating kinases SCYL1, GRK5, and ADCK1, the target genes were depleted using four different siRNA-sequences each (FIG. 2A-D). The gene-depletion was measured via mRNA-levels after 72 hours while the insulin release was measured using a rat/mouse insulin ELISA after two hours incubation.

C2C12 cells = experiment: Cell viability assay (CellTiter-Glo / automated cell number) in C2C12; format: cell-based; details: Mus musculus, read-out: Inhibition of cell viability IC50
Excerpt: (§3) Luminescent cell viability assay. For the detection of cell viability, the CellTiter-Glo® Luminescent Cell Viability Assay was used. This test is based on a luciferase reaction to measure the amount of ATP in cells. This correlates directly with the number of cells and their viability because cells lose the ability to synthesize ATP directly after e.g. loss of membrane integrity or a cytotoxic event. The protocol was adapted to 24 well plates and to the different culture conditions resulting in a standardized protocol which is described below. Cell lysis, inhibition of endogenous ATPases and detection of ATP was performed by adding the CellTiter-Glo® Reagent to the culture wells. Per well, 100 μl reagent were mixed with the same volume of proper Medium. Lysing of the cells took place by 10 min incubation at RT and moderate shaking. Three times 50 μl cell lysate was transferred into a white 96 well plate to eliminate stray light, and the bioluminescence was measured.
(§4) In a 96 well dish 10000 cells per well (100 μl) were seed and treated for 72 h. At the end of the treatment, cells were fixed with 4% paraformaldehyde in PBS for 15 minutes, permeabilized with 0.1% triton-X 100 in PBS for 15 minutes and stained with Hoechst 33342 (20 μg/ml in PBS; dilute from 20 mg/ml stock) directly to cells in 100 μl medium in PBS for 30 minutes at 37° C. Stained cells were imaged with a Cellomics ArrayScan VT I automated microscope. Images were analyzed with vHCS Scan Target Activation software v5.1.2 to identify apoptotic cells. Six fields per well of a 96 well plate we re-imaged at 10× magnification. First, cells were identified by their nuclei staining in channel 1 of Cellomics and their amount. Staining intensity was plotted and compared between NT controls and compound treated cells. Finally, data was obtained using vHCS View software v 5.1.2 and the numbers of cells present in the 96 well were identified as “Valid Object Count” whereas the percentage of infection was determined as “% selected”. IC50 values have been calculated accordingly.

beta TC6 cells = experiment: Cell viability assay (CellTiter-Glo / automated cell number) in beta TC6; format: cell-based; details: Mus musculus, read-out: Inhibition of cell viability IC50
Excerpt: as §3, §4

3T3-L1 cells = experiment: Cell viability assay (CellTiter-Glo / automated cell number) in 3T3-L1; format: cell-based; details: Mus musculus, read-out: Inhibition of cell viability IC50
Excerpt: as §3, §4

HepG2 cells = experiment: Cell viability assay (CellTiter-Glo / automated cell number) in HepG2; format: cell-based; details: Homo sapiens, read-out: Inhibition of cell viability IC50
Excerpt: as §3, §4

T2 sequence (P34947 whole entry): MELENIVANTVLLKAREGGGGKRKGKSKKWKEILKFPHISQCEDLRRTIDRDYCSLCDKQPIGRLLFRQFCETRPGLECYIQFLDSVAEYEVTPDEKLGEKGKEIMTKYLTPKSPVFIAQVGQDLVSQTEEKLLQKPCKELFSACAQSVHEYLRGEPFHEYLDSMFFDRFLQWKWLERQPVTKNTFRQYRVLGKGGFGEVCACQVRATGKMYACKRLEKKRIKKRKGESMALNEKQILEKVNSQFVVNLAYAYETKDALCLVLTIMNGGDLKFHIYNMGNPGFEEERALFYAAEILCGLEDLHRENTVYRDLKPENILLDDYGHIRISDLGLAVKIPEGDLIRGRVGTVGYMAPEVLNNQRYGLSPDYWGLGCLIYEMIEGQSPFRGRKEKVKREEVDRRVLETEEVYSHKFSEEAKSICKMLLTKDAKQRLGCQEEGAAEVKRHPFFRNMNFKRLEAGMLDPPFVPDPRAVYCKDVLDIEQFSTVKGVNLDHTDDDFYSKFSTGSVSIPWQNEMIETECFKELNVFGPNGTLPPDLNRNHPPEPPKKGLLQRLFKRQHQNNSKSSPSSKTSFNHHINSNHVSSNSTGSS
T1 sequence (P34947 whole entry): as above

IC50 (GRK5) | IC50 (full length GRK5) | IC50 (HepG2 cells) | SMILES | activation at 5 µM [1] | IC50 (C2C12 cells) | IC50 (beta TC6 cells) | IC50 (3T3-L1 cells)
0.1 to 1 µM | 0.1 to 1 µM | – | CCC(NC(=O)c1ccc2c(c1)/C(=C/c1[nH]c(C)c(C(=O)N3CCN(C)CC3)c1C)C(=O)N2)c1ccc(Cl)cc1 (stereo not shown) [II.12, (3Z)-N-[1-(4-chlorophenyl)propyl]-3-({3,5-dimethyl-4-[(4-methylpiperazin-1-yl)carbonyl]-1H-pyrrol-2-yl}methylene)-2-oxoindoline-5-carboxamide] | 214% | – | – | –
0.1 to 1 µM | – | – | Cc1[nH]c(/C=C2\C(=O)Nc3ccc(C(=O)N[C@H](C)c4ccccc4)cc32)c(C)c1C(=O)N1CCC[C@H]1CN1CCCC1 [II.16, (3Z)-3-[(3,5-dimethyl-4-{[(2S)-2-(pyrrolidin-1-ylmethyl)pyrrolidin-1-yl]carbonyl}-1H-pyrrol-2-yl)methylene]-2-oxo-N-[(1R)-1-phenylethyl]indoline-5-carboxamide] | – | – | – | –
2 to 10 µM | 2 to 10 µM | 2.84 µM | Cc1[nH]c(/C=C2\C(=O)Nc3ccc(C(=O)N[C@@H]4CCc5ccccc54)cc32)c(C)c1C(=O)N1CCC[C@@H]1CN1CCCC1 [II.30, (3Z)-N-[(1R)-2,3-dihydro-1H-inden-1-yl]-3-[(3,5-dimethyl-4-{[(2R)-2-(pyrrolidin-1-ylmethyl)pyrrolidin-1-yl]carbonyl}-1H-pyrrol-2-yl)methylene]-2-oxoindoline-5-carboxamide] | – | > 10 µM | 1.69 µM | 0.81 µM
< 0.1 µM | < 0.1 µM | 0.78 µM | CC[C@@H](NC(=O)c1ccc2c(c1)/C(=C/c1[nH]c(C)c(C(=O)N3CCC[C@H]3CN3CCCC3)c1C)C(=O)N2)c1ccccc1 [II.46, (3Z)-3-[(3,5-dimethyl-4-{[(2S)-2-(pyrrolidin-1-ylmethyl)pyrrolidin-1-yl]carbonyl}-1H-pyrrol-2-yl)methylene]-2-oxo-N-[(1R)-1-phenylpropyl]indoline-5-carboxamide] | – | 8.86 µM | 0.22 µM | 0.32 µM
2 to 10 µM | 2 to 10 µM | 3.25 µM | CC[C@H](NC(=O)c1ccc2c(c1)/C(=C/c1[nH]c(C)c(C(=O)N3CCC[C@H]3CN3CCCC3)c1C)C(=O)N2)c1ccccc1 [II.47, (3Z)-3-[(3,5-dimethyl-4-{[(2S)-2-(pyrrolidin-1-ylmethyl)pyrrolidin-1-yl]carbonyl}-1H-pyrrol-2-yl)methylene]-2-oxo-N-[(1S)-1-phenylpropyl]indoline-5-carboxamide] | – | > 10 µM | 2.21 µM | 1.34 µM
0.1 to 1 µM | 0.1 to 1 µM | 1.43 µM | CC[C@@H](NC(=O)c1ccc2c(c1)/C(=C/c1[nH]c(C)c(C(=O)N3CCC[C@@H]3CN3CCCC3)c1C)C(=O)N2)c1ccccc1 [II.48, (3Z)-3-[(3,5-dimethyl-4-{[(2R)-2-(pyrrolidin-1-ylmethyl)pyrrolidin-1-yl]carbonyl}-1H-pyrrol-2-yl)methylene]-2-oxo-N-[(1R)-1-phenylpropyl]indoline-5-carboxamide] | – | > 10 µM | 1.08 µM | 0.6 µM
0.1 to 1 µM | 0.1 to 1 µM | 1.3 µM | CC[C@@H](NC(=O)c1ccc2c(c1)/C(=C/c1[nH]c(C)c(C(=O)N3CCC(N4CCN(C)CC4)CC3)c1C)C(=O)N2)c1ccccc1 [II.53, (3Z)-3-[(3,5-dimethyl-4-{[4-(4-methylpiperazin-1-yl)piperidin-1-yl]carbonyl}-1H-pyrrol-2-yl)methylene]-2-oxo-N-[(1R)-1-phenylpropyl]indoline-5-carboxamide] | – | > 10 µM | 1.55 µM | 1.14 µM
0.1 to 1 µM | 0.1 to 1 µM | 0.79 µM | Cc1[nH]c(/C=C2\C(=O)Nc3ccc(C(=O)N[C@H](C)c4cccc(Cl)c4)cc32)c(C)c1C(=O)N1CCCCC1 [II.55, (3Z)-N-[(1R)-1-(3-chlorophenyl)ethyl]-3-{[3,5-dimethyl-4-(piperidin-1-ylcarbonyl)-1H-pyrrol-2-yl]methylene}-2-oxoindoline-5-carboxamide] | – | 1.41 µM | 1.1 µM | 0.86 µM
0.1 to 1 µM | 0.1 to 1 µM | 1.25 µM | CC[C@@H](NC(=O)c1ccc2c(c1)/C(=C/c1[nH]c(C)c(C(=O)N3CCCCC3)c1C)C(=O)N2)c1ccccc1 [II.63, (3Z)-3-{[3,5-dimethyl-4-(piperidin-1-ylcarbonyl)-1H-pyrrol-2-yl]methylene)-2-oxo-N-[(1R)-1-phenylpropyl]indoline-5-carboxamide] | – | 1.72 µM | 1.26 µM | 0.94 µM
0.1 to 1 µM | 0.1 to 1 µM | 1.81 µM | COc1ccc([C@@H](C)NC(=O)c2ccc3c(c2)/C(=C/Nc2ccc(CN4CCCCC4)cc2)C(=O)N3)cc1 [II.70, (3Z)-N-[(1R)-1-(4-methoxyphenyl)ethyl]-2-oxo-3-({[4-(piperidin-1-ylmethyl)phenyl]amino}methylene)indoline-5-carboxamide] | – | > 10 µM | 1.48 µM | 2.16 µM
2 to 10 µM | 2 to 10 µM | 2.53 µM | C[C@@H](c1ccccc1)N(C)C(=O)c1ccc2c(c1)/C(=C/Nc1ccc(CN3CCCCC3)cc1)C(=O)N2 [II.71, (3Z)-N-methyl-2-oxo-N-[(1S)-1-phenylethyl]-3-({[4-(piperidin-1-ylmethyl)phenyl]amino}methylene)indoline-5-carboxamide] | – | 4.26 µM | 2.75 µM | 3.1 µM
0.1 to 1 µM | 0.1 to 1 µM | 2.07 µM | Cc1ccc([C@@H](C)NC(=O)c2ccc3c(c2)/C(=C/Nc2ccc(CN4CCCCC4)cc2)C(=O)N3)cc1 [II.72, (3Z)-N-[(1R)-1-(4-methylphenyl)ethyl]-2-oxo-3-({[4-(piperidin-1-ylmethyl)phenyl]amino}methylene)indoline-5-carboxamide] | – | > 10 µM | 1.27 µM | 1.54 µM
– | 0.1 to 1 µM | 1.49 µM | CC[C@@H](NC(=O)c1ccc2c(c1)/C(=C/c1[nH]c(C)c(CCC(=O)NCCN(CC)CC)c1C)C(=O)N2)c1ccccc1 [II.131, (3Z)-3-{4-[2-(2-diethylamino-ethylcarbamoyl)-ethyl]-3,5-dimethyl-1H-pyrrol-2-ylmethylene}-2-oxo-2,3-dihydro-1H-indole-5-carboxylic acid (1-phenyl-propyl)-amide] | 134% | > 10 µM | 3.47 µM | > 10 µM
